Data taken from patent US20160287589A1, “SUBSTITUTED-IMIDAZOPYRIDAZINES” (BAYER PHARMA AKTIENGESELLSCHAFT, priority 2013, published 2016).
Blank lines part the entries; values can stand above or below the compound they belong to.

Key:
[1] = target: T1, MKNK1 (Homo sapiens, UniProt Q9BUB5, T385D); assay: MKNK1 kinase assay (MKNK1 TR-FRET assay); type: biochemical; conditions: 10 μM ATP, 15 min preincubation
T1 construct: GST (N); purchased Carna Biosciences 02-145; host or cells: insect cells (baculovirus expression system)

[2] = target: T1, MKNK1; assay: MKNK1 kinase high ATP assay (TR-FRET-based); type: biochemical; conditions: 2 mM ATP, 15 min preincubation
Method in brief: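 TR-FRET read-out (anti-phospho-S6 Ser236 antibody, Eu/XL665) of biotin-peptide phosphorylation (0.06 μM) at high ATP (2 mM final). Enzyme was GST-MKNK1 full length, T344D, pre-bound to compound for 15 min before a 30 min reaction at 22 °C, pH 7.5. Inhibition scaled between no-inhibitor (0%) and no-enzyme (100%) wells.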

T1 sequence (Q9BUB5 1-424 isoform Q9BUB5-2 T344D): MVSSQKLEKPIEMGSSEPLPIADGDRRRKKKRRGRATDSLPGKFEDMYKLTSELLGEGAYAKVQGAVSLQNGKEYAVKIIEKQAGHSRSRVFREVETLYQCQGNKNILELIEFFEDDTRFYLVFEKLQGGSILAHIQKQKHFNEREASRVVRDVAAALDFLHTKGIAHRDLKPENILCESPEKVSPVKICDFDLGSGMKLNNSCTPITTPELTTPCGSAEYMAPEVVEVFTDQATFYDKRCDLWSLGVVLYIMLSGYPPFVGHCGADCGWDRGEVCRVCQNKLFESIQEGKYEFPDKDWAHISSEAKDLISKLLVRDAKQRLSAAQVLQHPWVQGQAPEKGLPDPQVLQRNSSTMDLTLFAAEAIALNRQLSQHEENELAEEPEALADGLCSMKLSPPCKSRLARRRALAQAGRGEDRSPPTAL

SMILES: Cn1ccc(C(=O)N2CCC[C@H]2CCOc2ccc3ncc(-c4cc5ccccc5o4)n3n2)n1 [Example I-50, [(2S)-2-(2-{[3-(1-Benzofuran-2-yl)imidazo[1,2-b]-pyridazin-6-yl]oxy}ethyl)pyrrolidin-1-yl](1-methyl-1H-pyrazol-3-yl)methanone]
IC50 ([1]; Table 1a): 2.4 nM
IC50 ([2]; Table 2a): 3.2 nM

SMILES: C[C@H]1COCCN1c1cccc2oc(-c3cnc4ccc(OC[C@H]5CCC(=O)N5)nn34)cc12 [II-32, (5R)-5-{[(3-{4-[(3S)-3-methylmorpholin-4-yl]-1-benzofuran-2-yl}imidazo[1,2-b]pyridazin-6-yl)oxy]methyl}pyrrolidin-2-one]
IC50 ([1]; Table 1b): 4.4 nM
IC50 ([2]; Table 2b): 8.1 nM

SMILES: CCN(CCOC(C)(C)C)c1nccc2oc(-c3cnc4ccc(OC[C@H](C)N)nn34)cc12 [III-26, 2-(6-{[(2S)-2-Aminopropyl]oxy}imidazo[1,2-b]pyridazin-3-yl)-N-(2-tert-butoxyethyl)-N-ethylfuro[3,2-c]pyridin-4-amine]
IC50 ([1]; Table 1c): 1.7 nM
IC50 ([2]; Table 2c): 0.8 nM

SMILES: COC[C@H]1CCCN1c1cccc2oc(-c3cnc4ccc(OC[C@@H]5CNCC(=O)N5)nn34)cc12 [II-47, (6S)-6-{[(3-{4-[(2R)-2-(methoxymethyl)pyrrolidin-1-yl]-1-benzofuran-2-yl}imidazo[1,2-b]pyridazin-6-yl)oxy]methyl}piperazin-2-one]
IC50 ([1]; Table 1b): 4.8 nM
IC50 ([2]; Table 2b): 0.8 nM

SMILES: O=C(c1ccno1)N1CCC[C@H]1CCOc1ccc2ncc(-c3cc4ccccc4o3)n2n1 [Example I-47, [(2S)-2-(2-{[3-(1-Benzofuran-2-yl)imidazo[1,2-b]-pyridazin-6-yl]oxy}ethyl)pyrrolidin-1-yl](1,2-oxazol-5-yl)methanone]
IC50 ([1]; Table 1a): 1.6 nM
IC50 ([2]; Table 2a): 2.2 nM

SMILES: C[C@H](N)COc1ccc2ncc(-c3cc4c(N5CCOC[C@H]5C)cccc4o3)n2n1 [II-57, (2S)-1-[(3-{4-[(3R)-3-methylmorpholin-4-yl]-1-benzofuran-2-yl}imidazo[1,2-b]pyridazin-6-yl)oxy]propan-2-amine]
IC50 ([1]; Table 1b): 53.7 nM
IC50 ([2]; Table 2b): 75.1 nM

SMILES: O=C(c1ccccc1)N1CCOC(COc2ccc3ncc(-c4cc5ccccc5o4)n3n2)C1 (stereo not shown) [Example I-16, [2-({[3-(1-benzofuran-2-yl)imidazo[1,2-b]pyridazin-6-yl]oxy}methyl)morpholin-4-yl](phenyl)methanone]
IC50 ([1]; Table 1a): 4.7 nM
IC50 ([2]; Table 2a): 13.3 nM

SMILES: O=C(c1ccccn1)N1CCC[C@H]1CCOc1ccc2ncc(-c3cc4ccccc4o3)n2n1 [Example I-62, [(2S)-2-(2-{[3-(1-Benzofuran-2-yl)imidazo[1,2-b]-pyridazin-6-yl]oxy}ethyl)pyrrolidin-1-yl](pyridin-2-yl)methanone]
IC50 ([1]; Table 1a): 3.5 nM
IC50 ([2]; Table 2a): 6.8 nM

SMILES: COC[C@H]1CCCN1c1cccc2oc(-c3cnc4ccc(O[C@H]5C[C@H](N)C5)nn34)cc12 [II-11, trans-3-[(3-{4-[(2R)-2-(Methoxymethyl)pyrrolidin-1-yl]-1-benzofuran-2-yl}imidazo[1,2-b]pyridazin-6-yl)oxy]cyclobutanamine]
IC50 ([1]; Table 1b): 2.4 nM
IC50 ([2]; Table 2b): 3.5 nM

SMILES: COCC(=O)N1CCC[C@H]1CCOc1ccc2ncc(-c3cc4ccccc4o3)n2n1 [Example I-58, 1-[(2S)-2-(2-{[3-(1-Benzofuran-2-yl)imidazo[1,2-b]-pyridazin-6-yl]oxy}ethyl)pyrrolidin-1-yl]-2-methoxyethanone]
IC50 ([1]; Table 1a): 2.6 nM
IC50 ([2]; Table 2a): 5.2 nM

SMILES: CC1(C)CN(c2cccc3oc(-c4cnc5ccc(OC[C@H]6CCC(=O)N6)nn45)cc23)CCO1 [II-74, (5R)-5-[({3-[4-(2,2-dimethylmorpholin-4-yl)-1-benzofuran-2-yl]imidazo[1,2-b]pyridazin-6-yl}oxy)methyl]pyrrolidin-2-one]
IC50 ([1]; Table 1b): 4.1 nM
IC50 ([2]; Table 2b): 11.2 nM

SMILES: O=C(NCCOc1ccc2ncc(-c3cc4ccccc4o3)n2n1)C1CCOCC1 [Example I-66, N-(2-{[3-(1-Benzofuran-2-yl)imidazo[1,2-b]-pyridazin-6-yl]oxy}ethyl)tetrahydro-2H-pyran-4-carboxamide]
IC50 ([1]; Table 1a): 7.3 nM
IC50 ([2]; Table 2a): 14.9 nM

SMILES: COc1ccc2ncc(-c3cc4c(N5CCN(c6ccccc6)CC5)cccc4o3)n2n1 [II-22, 6-Methoxy-3-[4-(4-phenylpiperazin-1-yl)-1-benzofuran-2-yl]imidazo[1,2-b]-pyridazine]
IC50 ([1]; Table 1b): 371 nM
IC50 ([2]; Table 2b): 422 nM

SMILES: N[C@H]1C[C@H](Oc2ccc3ncc(-c4cc5c(N6CCN(c7ccccc7)CC6)cccc5o4)n3n2)C1 [II-16, trans-3-({3-[4-(4-Phenylpiperazin-1-yl)-1-benzofuran-2-yl]imidazo[1,2-b]-pyridazin-6-yl}oxy)cyclobutanamine]
IC50 ([1]; Table 1b): 13 nM
IC50 ([2]; Table 2b): 15 nM

The remaining lines, values ahead:

IC50 ([1]; Table 1c): 15.6 nM
IC50 ([2]; Table 2c): 88.1 nM
SMILES: CCN(CCOC)c1nccc2oc(-c3cnc4ccc(O[C@H]5Cc6ccccc6[C@H]5N)nn34)cc12 [III-112, 2-(6-{[(1R,2S)-1-Amino-2,3-dihydro-1H-inden-2-yl]oxy}imidazo[1,2-b]pyridazin-3-yl)-N-ethyl-N-(2-methoxyethyl)furo[3,2-c]pyridin-4-amine]

IC50 ([1]; Table 1c): 8.4 nM
IC50 ([2]; Table 2c): 19.5 nM
SMILES: C[C@@H](N)COc1ccc2ncc(-c3cc4c(N5CCOCC5)nccc4o3)n2n1 [III-1, (2R)-1-({3-[4-(Morpholin-4-yl)furo[3,2-c]pyridin-2-yl]imidazo[1,2-b]pyridazin-6-yl}oxy)propan-2-amine]

IC50 ([1]; Table 1d): 1 nM
IC50 ([2]; Table 2d): 2 nM
SMILES: CCNc1nccc2oc(-c3cnc4ccc(OC[C@H]5CCC(=O)N5)nn34)cc12 [IV-14, (5R)-5-[({3-[4-(Ethylamino)furo[3,2-c]pyridin-2-yl]imidazo[1,2-b]pyridazin-6-yl}oxy)methyl]pyrrolidin-2-one]

IC50 ([1]; Table 1d): 4 nM
IC50 ([2]; Table 2d): 10 nM
SMILES: COc1nccc2oc(-c3cnc4ccc(OC[C@H]5CN(C(=O)C6CC6)CCO5)nn34)cc12 [IV-8, Cyclopropyl[(2R)-2-({[3-(4-methoxyfuro[3,2-c]pyridin-2-yl)imidazo[1,2-b]-pyridazin-6-yl]oxy}methyl)morpholin-4-yl]methanone]

IC50 ([1]; Table 1d): 7 nM
IC50 ([2]; Table 2d): 17 nM
SMILES: COc1nccc2oc(-c3cnc4ccc(OC[C@H]5CN(C(=O)C(F)(F)F)CCO5)nn34)cc12 [IV-10, 2,2,2-Trifluoro-1-[(2R)-2-({[3-(4-methoxyfuro[3,2-c]pyridin-2-yl)imidazo-[1,2-b]pyridazin-6-yl]oxy}methyl)morpholin-4-yl]ethanone]

IC50 ([1]; Table 1c): 80 nM
IC50 ([2]; Table 2c): 183 nM
SMILES: c1cc2oc(-c3cnc4ccc(OC[C@H]5CCCCN5)nn34)cc2c(N2CCOCC2)n1 (stereo in doubt) [III-140, 3-[4-(morpholin-4-yl)furo[3,2-c]pyridin-2-yl]-6-(piperidin-2-ylmeth-oxy)imidazo[1,2-b]pyridazine]

IC50 ([1]; Table 1c): 1.6 nM
IC50 ([2]; Table 2c): 0.5 nM
SMILES: CC1(C)CN(c2nccc3oc(-c4cnc5ccc(OC[C@H]6CCC(=O)N6)nn45)cc23)CCO1 [III-142, (5R)-5-[({3-[4-(2,2-dimethylmorpholin-4-yl)furo[3,2-c]pyridin-2-yl]imidazo[1,2-b]pyridazin-6-yl}oxy)methyl]pyrrolidin-2-one]

IC50 ([1]; Table 1c): 2.5 nM
IC50 ([2]; Table 2c): 1 nM
SMILES: C[C@@H]1CN(c2nccc3oc(-c4cnc5ccc(OC[C@H]6CCC(=O)N6)nn45)cc23)CCO1 [III-118, (5R)-5-{[(3-{4-[(2R)-2-methylmorpholin-4-yl]furo[3,2-c]pyridin-2-yl}imidazo[1,2-b]pyridazin-6-yl)oxy]methyl}pyrrolidin-2-one]

IC50 ([1]; Table 1c): 4.6 nM
IC50 ([2]; Table 2c): 6.7 nM
SMILES: COc1ccc2ncc(-c3cc4c(N5CCN[C@H](C)C5)nccc4o3)n2n1 [III-144, 6-methoxy-3-{4-[(3R)-3-methylpiperazin-1-yl]furo[3,2-c]pyridin-2-yl}imidazo[1,2-b]pyridazine]

IC50 ([1]; Table 1c): 13.6 nM
IC50 ([2]; Table 2c): 21.2 nM
SMILES: CN(CCCN1CCCC1)c1nccc2oc(-c3cnc4ccc(OCCCS(C)(=O)=O)nn34)cc12 [III-47, N-methyl-2-{6-[3-(methylsulfonyl)propoxy]imidazo[1,2-b]pyridazin-3-yl}-N-[3-(pyrrolidin-1-yl)propyl]furo[3,2-c]pyridin-4-amine]

IC50 ([1]; Table 1c): 3.9 nM
IC50 ([2]; Table 2c): 3.6 nM
SMILES: CN(C)[C@@H]1CCN(c2nccc3oc(-c4cnc5ccc(OCCCS(C)(=O)=O)nn45)cc23)C1 [III-46, (3R)—N,N-Dimethyl-1-(2-{6-[3-(methylsulfonyl)propoxy]imidazo[1,2-b]pyridazin-3-yl}furo[3,2-c]pyridin-4-yl)pyrrolidin-3-amine]

IC50 ([1]; Table 1c): 0.6 nM
IC50 ([2]; Table 2c): 1.5 nM
SMILES: CCN(CCOC)c1nccc2oc(-c3cnc4ccc(O[C@H](C)CN)nn34)cc12 [III-32, 2-(6-{[(2R)-1-Aminopropan-2-yl]oxy}imidazo[1,2-b]pyridazin-3-yl)-N-ethyl-N-(2-methoxyethyl)furo[3,2-c]pyridin-4-amine]

IC50 ([1]; Table 1c): 5.5 nM
IC50 ([2]; Table 2c): 14.9 nM
SMILES: CS(=O)(=O)CCCOc1ccc2ncc(-c3cc4c(N5CCCC5)nccc4o3)n2n1 [III-44, 6-[3-(Methylsulfonyl)propoxy]-3-[4-(pyrrolidin-1-yl)furo[3,2-c]pyridin-2-yl]imidazo[1,2-b]pyridazine]

IC50 ([1]; Table 1c): 4.8 nM
IC50 ([2]; Table 2c): 13.5 nM
SMILES: CC(C)(C)OC(=O)N1CCN(c2nccc3oc(-c4cnc5ccc(OC[C@H]6CCC(=O)N6)nn45)cc23)CC1 [III-70, tert-Butyl 4-[2-(6-{[(2R)-5-oxopyrrolidin-2-yl]methoxy}imidazo[1,2-b]pyridazin-3-yl)furo[3,2-c]pyridin-4-yl]piperazine-1-carboxylate]

IC50 ([1]; Table 1c): 18.3 nM
IC50 ([2]; Table 2c): 44.2 nM
SMILES: C[C@H](N)COc1ccc2ncc(-c3cc4c(N5CCNCC5)nccc4o3)n2n1 [III-17, (2S)-1-({3-[4-(Piperazin-1-yl)furo[3,2-c]pyridin-2-yl]imidazo[1,2-b]pyridazin-6-yl}oxy)propan-2-amine]
